Experimental data reported in patent publication US4169096A, “Antibiotic compounds” (priority 1977, dated 1979).
In brackets after ≈: the same amount, converted by molar mass. Where two headings read alike, the source gives them in different places.

Experiments:
[1] = tested on: Klebsiella pneumoniae A9678; assay: MIC, serial two-fold agar dilution, aerobic bacteria; assay type: cell-based
[2] = tested on: Serratia marcescens A20019; assay: as above; assay type: cell-based
[3] = tested on: Pseudomonas aeruginosa A9843; assay: as above; assay type: cell-based; settings: test medium not given
Proteus mirabilis A9554 = assay: as above; assay type: cell-based; settings: Nutrient agar (Eiken)
Proteus morganii A9553 = assay: as above; assay type: cell-based; settings: Morganella morganii, Nutrient agar (Eiken)
[4] = tested on: Staphylococcus aureus 209P; assay: as above; assay type: cell-based; settings: Nutrient agar (Eiken)
[5] = tested on: Staphylococcus aereus Smith; assay: as above; assay type: cell-based; settings: Nutrient agar (Eiken), read-out: MIC
[6] = tested on: Staphylococcus aureus #52-34; assay: as above; assay type: cell-based; settings: Nutrient agar (Eiken), read-out: MIC
[7] = tested on: Bacillus subtilis PCI-219; assay: as above; assay type: cell-based; settings: PCI219, Nutrient agar (Eiken), read-out: MIC
[8] = tested on: Neisseria meningitidis A20049; assay: as above; assay type: cell-based
[9] = tested on: Neisseria gonorrhoeae A15112; assay: as above; assay type: cell-based; settings: GC medium (Eiken)
[10] = tested on: Neisseria gonorrhoeae A20154; assay: as above; assay type: cell-based; settings: GC medium (Eiken)
[11] = tested on: Hemophilus influenzae A20188; assay: as above; assay type: cell-based; settings: Haemophilus influenzae, GC medium (Eiken)
[12] = tested on: Peptostreptococcus anaerobius B43; assay type: cell-based; settings: GAM agar medium (Nissui)
C. perfringens A9635 [13] = assay: microbe, parasite or virus in culture; assay type: cell-based, Clostridium perfringens; settings: inoculum size 7 × 10^6 cell/ml
B. fragilis A20928-1 = assay: Bactericidal activity (MIC & MBC); assay type: cell-based; settings: Bacteroides fragilis, A209281; inoculum size 2.8 × 10^6 cell/ml; broth
C. perfringens A9635 [14] = assay: microbe, parasite or virus in culture; assay type: cell-based; settings: Clostridium perfringens, A9635, 18 h
S. pyogenes A20201 [15] = assay: Bactericidal activity (MIC & MBC); assay type: cell-based; settings: Streptococcus pyogenes, A20201, inoculum size 6 × 10^5 cell/ml
B. fragilis A20926 = assay: Localized infection with B. fragilis in mice; assay type: in vivo; settings: for mean score: control 4.2; for sum of score: control 21; for infectivity level: control 100%
C. perfringens A9635 [16] = assay: animal or person; assay type: in vivo, mice; settings: Clostridium perfringens, A9635, in Mus musculus, 120 h, read-out: PD50
S. pyogenes A20201 [17] = assay: Systemic infection with S. pyogenes in mice; assay type: in vivo; settings: Streptococcus pyogenes, A20201, 120 h, just before challenge, determined after 5 days, read-out: PD50
[18] = tested on: C. perfringens or S. pyrogenes; assay type: in vivo, mice; settings: mouse, in vivo
[19] = tested on: Bacteroides fragilis A20929; assay: microbe, parasite or virus in culture
[20] = tested on: Bacteroides fragilis A20930; assay: microbe, parasite or virus in culture
[21] = tested on: Bacteroides fragilis A20932; assay: microbe, parasite or virus in culture
[22] = tested on: Sphaerophorus pseudonecrophorus A20013; assay: microbe, parasite or virus in culture; settings: Fusobacterium necrophorum
[23] = tested on: Fusobacterium mortiferum ATCC 9817; assay: microbe, parasite or virus in culture; settings: ATCC9817
[24] = tested on: Fusobacterium varium ATCC 8501; assay: microbe, parasite or virus in culture; settings: ATCC8501
[25] = tested on: Acidoaminococcus fermentans ATCC 25085; assay: microbe, parasite or virus in culture
[26] = tested on: Veillonella parvula ATCC 17745; assay: microbe, parasite or virus in culture; settings: ATCC17745
[27] = tested on: Clostridium caproicum IAM 19228; assay: microbe, parasite or virus in culture; settings: IAM19228
[28] = tested on: Peptocuccus prevotii ATCC 9321; assay: microbe, parasite or virus in culture
[29] = tested on: Peptococcus aerogenes ATCC 14963; assay: microbe, parasite or virus in culture; settings: Peptoniphilus asaccharolyticus, ATCC14963
[30] = subcutaneous or oral
in vivo = settings: mouse

CCC[C@@H]1C[C@@H](C(=O)N[C@@H]([C@H]2O[C@H](SC)[C@H](O)[C@@H](O)[C@H]2O)[C@H](C)Cl)N(C)C1 [Clindamycin]
MIC [1]: 100 mg/L (≈ 235 µM)
MIC [2]: 50 mg/L (≈ 118 µM)
MIC [3]: > 100 mg/L
MIC (Proteus mirabilis A9554): 100 mg/L (≈ 235 µM)
MIC (Proteus morganii A9553): 100 mg/L (≈ 235 µM)
MIC [4]: 0.1 mg/L (≈ 0.235 µM)
MIC [5]: 0.1 mg/L (≈ 0.235 µM)
MIC [6]: 0.1 mg/L (≈ 0.235 µM)
MIC [7]: 0.8 mg/L (≈ 1.88 µM)
MIC [8]: 0.05 mg/L (≈ 0.118 µM)
MIC [9]: 0.2 mg/L (≈ 0.471 µM)
MIC [10]: 0.2 mg/L (≈ 0.471 µM)
MIC [11]: 0.8 mg/L (≈ 1.88 µM)
MIC [12]: 0.8 mg/L (≈ 1.88 µM)
MIC in GAM agar (C. perfringens A9635 [13]): 0.0125 mg/L (≈ 0.0294 µM)
MIC (B. fragilis A20928-1): 0.05 mg/L (≈ 0.118 µM)
MBC (C. perfringens A9635 [14]): 0.05 mg/L (≈ 0.118 µM)
MIC (S. pyogenes A20201 [15]; broth): 0.05 mg/L (≈ 0.118 µM)
MBC (S. pyogenes A20201 [15]; growth of less than 100 colonies per plate, 18 hours at 37° C., read-out: MBC): 6.3 mg/L (≈ 14.8 µM)
comparative in vivo activity (B. fragilis A20926; B. fragilis localized infection): more active than Bu-2313B or Flagyl
mean score (B. fragilis A20926; oral, 6.3 × 5 mg/kg): 2.6
sum of score (B. fragilis A20926; oral, 6.3 × 5 mg/kg): 13
infectivity level (B. fragilis A20926; oral, 6.3 × 5 mg/kg): 61.9%
mean score (B. fragilis A20926; oral, 25 × 5 mg/kg): 1.8
sum of score (B. fragilis A20926; oral, 25 × 5 mg/kg): 9
infectivity level (B. fragilis A20926; oral, 25 × 5 mg/kg): 42.9%
sum of score (B. fragilis A20926; oral, 100 × 5 mg/kg): 2
infectivity level (B. fragilis A20926; oral, 100 × 5 mg/kg): 9.5%
mean score (B. fragilis A20926; oral, […] 5 mg/kg): 4.0
sum of score (B. fragilis A20926; oral, […] 5 mg/kg): 20
infectivity level (B. fragilis A20926; oral, […] 5 mg/kg): 95.2%
mean score (B. fragilis A20926; subcutaneous, 0.8 × 5 mg/kg): 4.0
sum of score (B. fragilis A20926; subcutaneous, 0.8 × 5 mg/kg): 20
infectivity level (B. fragilis A20926; subcutaneous, 0.8 × 5 mg/kg): 95.2%
mean score (B. fragilis A20926; subcutaneous, 3.1 × 5 mg/kg): 2.0
sum of score (B. fragilis A20926; subcutaneous, 3.1 × 5 mg/kg): 10
infectivity level (B. fragilis A20926; subcutaneous, 3.1 × 5 mg/kg): 47.6%
mean score (B. fragilis A20926; subcutaneous, 50 × 5 mg/kg): 0.8
sum of score (B. fragilis A20926; subcutaneous, 50 × 5 mg/kg): 4
infectivity level (B. fragilis A20926; subcutaneous, 50 × 5 mg/kg): 19.0%
mean score (B. fragilis A20926; subcutaneous, […] 5 mg/kg): 1.4
sum of score (B. fragilis A20926; subcutaneous, […] 5 mg/kg): 7
infectivity level (B. fragilis A20926; subcutaneous, […] 5 mg/kg): 33.3%
ED50 (C. perfringens A9635 [16]; po): 0.22 mg/kg
ED50 (C. perfringens A9635 [16]; sc): 0.08 mg/kg
ED50 (S. pyogenes A20201 [17]; po, NA: no activity): 2.1 mg/kg
ED50 (S. pyogenes A20201 [17]; sc): 0.3 mg/kg
comparative in vivo activity [18]: the most active
MIC [19]: 0.05 mg/L (≈ 0.118 µM)
MIC [20]: 0.05 mg/L (≈ 0.118 µM)
MIC [21]: 0.05 mg/L (≈ 0.118 µM)
MIC [22]: 0.05 mg/L (≈ 0.118 µM)
MIC [23]: 0.05 mg/L (≈ 0.118 µM)
MIC [24]: 0.05 mg/L (≈ 0.118 µM)
MIC [25]: 0.05 mg/L (≈ 0.118 µM)
MIC [26]: 0.05 mg/L (≈ 0.118 µM)
MIC [27]: 0.1 mg/L (≈ 0.235 µM)
MIC [28]: 0.1 mg/L (≈ 0.235 µM)
MIC [29]: 0.2 mg/L (≈ 0.471 µM)

Cc1ncc([N+](=O)[O-])n1CCO [Flagyl]
mean score (B. fragilis A20926; oral, 6.3 × 5 mg/kg): 3.4
sum of score (B. fragilis A20926; oral, 6.3 × 5 mg/kg): 17
infectivity level (B. fragilis A20926; oral, 6.3 × 5 mg/kg): 81.0%
mean score (B. fragilis A20926; oral, 25 × 5 mg/kg): 2.6
sum of score (B. fragilis A20926; oral, 25 × 5 mg/kg): 13
infectivity level (B. fragilis A20926; oral, 25 × 5 mg/kg): 61.9%
mean score (B. fragilis A20926; oral, 100 × 5 mg/kg): 1.6
sum of score (B. fragilis A20926; oral, 100 × 5 mg/kg): 8
infectivity level (B. fragilis A20926; oral, 100 × 5 mg/kg): 38.1%
mean score (B. fragilis A20926; oral, […] 5 mg/kg): 4.0
sum of score (B. fragilis A20926; oral, […] 5 mg/kg): 20
infectivity level (B. fragilis A20926; oral, […] 5 mg/kg): 95.2%
mean score (B. fragilis A20926; subcutaneous, 0.8 × 5 mg/kg): 4.0
sum of score (B. fragilis A20926; subcutaneous, 0.8 × 5 mg/kg): 20
infectivity level (B. fragilis A20926; subcutaneous, 0.8 × 5 mg/kg): 95.2%
mean score (B. fragilis A20926; subcutaneous, 3.1 × 5 mg/kg): 3.4
sum of score (B. fragilis A20926; subcutaneous, 3.1 × 5 mg/kg): 17
infectivity level (B. fragilis A20926; subcutaneous, 3.1 × 5 mg/kg): 81.0%
mean score (B. fragilis A20926; subcutaneous, 50 × 5 mg/kg): 2.0
sum of score (B. fragilis A20926; subcutaneous, 50 × 5 mg/kg): 10
infectivity level (B. fragilis A20926; subcutaneous, 50 × 5 mg/kg): 47.6%
mean score (B. fragilis A20926; subcutaneous, […] 5 mg/kg): 2.4
sum of score (B. fragilis A20926; subcutaneous, […] 5 mg/kg): 12
infectivity level (B. fragilis A20926; subcutaneous, […] 5 mg/kg): 57.1%
ED50 (C. perfringens A9635 [16]; po): 60 mg/kg
ED50 (C. perfringens A9635 [16]; sc): 31 mg/kg
absorption compared with Bu-2313B [30]: better absorptions than Bu-2313B
concentration at 0.5 h (in vivo; po, 25 mg/kg): 8.8 µg/mL
concentration at 1 h (in vivo; po, 25 mg/kg): 6.7 µg/mL
concentration at 3 h (in vivo; po, 25 mg/kg): 6.1 µg/mL
concentration at 0.5 h (in vivo; po, 50 mg/kg): 20 µg/mL
concentration at 1 h (in vivo; po, 50 mg/kg): 15 µg/mL
concentration at 3 h (in vivo; po, 50 mg/kg): 11 µg/mL
concentration at 0.5 h (in vivo; po, 100 mg/kg): 56 µg/mL
concentration at 1 h (in vivo; po, 100 mg/kg): 41 µg/mL
concentration at 3 h (in vivo; po, 100 mg/kg): 24 µg/mL
concentration at 5 h (in vivo; po, 100 mg/kg): 13 µg/mL
concentration at 0.5 h (in vivo; sc, 25 mg/kg): 15 µg/mL
concentration at 1 h (in vivo; sc, 25 mg/kg): 12 µg/mL
concentration at 2 h (in vivo; sc, 25 mg/kg): 8.3 µg/mL
concentration at 0.5 h (in vivo; sc, 50 mg/kg): 32 µg/mL
concentration at 1 h (in vivo; sc, 50 mg/kg): 26 µg/mL
concentration at 2 h (in vivo; sc, 50 mg/kg): 12 µg/mL
concentration at 0.5 h (in vivo; sc, 100 mg/kg): 121 µg/mL
concentration at 1 h (in vivo; sc, 100 mg/kg): 98 µg/mL
concentration at 2 h (in vivo; sc, 100 mg/kg): 40 µg/mL
